Experimental data: patent US20250236655A1, “PROCESS FOR THE PREPARATION OF LIRAGLUTIDE” (SHILPA PHARMA LIFESCIENCES LIMITED, priority 2024, published 2025)

Test: storage stability of liraglutide obtained by the present process
Format: physicochemical
Conditions: liraglutide of purity greater or equal to 99.5% obtained as per the present process

stable to handle and store without any significant or measurable change in its morphology and physicochemical characteristics: more than 6 months
Substance: Liraglutide
